# Results: ChEMBL document CHEMBL5120899, “Sesquiterpene Lactones from Vernonia tufnelliae: Structural Characterization and Biological Evaluation” (J Nat Prod, 2022)
# Tested on: HeLa S3
# Experiment: Cytotoxicity against human HeLa S3 cells assessed as cell viability incubated for 48 hrs by microscopic analysis
# Type: functional, cell-based
# Conditions: HeLa S3, 48 h
row,SMILES,IC50
1,O=Cc1c[nH]c2ccccc12 [3-FORMYLINDOLE],> 10 µM
2,Oc1ccc(Cc2ccc(O)cc2)cc1,> 10 µM
3,C=C[C@@]1(C)C[C@@H](OC(=O)C(=C)CO)[C@H](C(=C)C(=O)OC/C2=C\[C@H]3OC(=O)C(=C)[C@@H]3[C@@H](OC(=O)C(=C)CO)C/C(C)=C/CC2)[C@@H](O)[C@@H]1C(=C)CO,> 10 µM
4,C=C(CO)C(=O)O[C@H]1C/C(C)=C/CC/C(CO)=C/[C@H]2OC(=O)[C@@H](CN[C@H](CC(C)C)C(=O)O)[C@H]12,> 10 µM
5,C=C(CO)C(=O)O[C@H]1C/C(C)=C/CC/C(CO)=C/[C@H]2OC(=O)[C@@H](CN[C@@H](C(=O)O)C(C)C)[C@H]12,> 10 µM
6,O=c1cc(-c2ccc(O)cc2)oc2cc(O[C@@H]3O[C@H](CO)[C@@H](O)[C@H](O)[C@H]3O)cc(O)c12 [APIGETRIN],> 10 µM
7,COc1cc2oc(-c3ccc(O)c(O)c3)cc(=O)c2c(O)c1O,> 10 µM
8,C=C(CO)C(=O)O[C@H]1C/C(C)=C/CC/C(CO)=C/[C@H]2OC(=O)[C@@H](CN3C[C@@H](CO)[C@]4(O)O[C@H]5C/C(C)=C/CC/C(CO)=C/[C@H]6OC(=O)[C@]4(C3)[C@H]56)[C@H]12,> 10 µM
9,Oc1ccc(Cc2ccccc2O)cc1,> 10 µM
10,C=C(CO)C(=O)O[C@H]1C/C(C)=C/CC/C(CO)=C/[C@H]2OC(=O)[C@@H](CN[C@H](Cc3ccccc3)C(=O)O)[C@H]12,> 10 µM
11,O=c1cc(-c2ccc(O)c(O)c2)oc2cc(O[C@@H]3O[C@H](CO)[C@@H](O)[C@H](O)[C@H]3O)cc(O)c12 [GALUTEOLIN],> 10 µM
12,O=c1cc(-c2ccc(O)cc2)oc2cc(O)cc(O)c12 [APIGENIN],> 10 µM
13,C=C(CO)C(=O)O[C@H]1C/C(C)=C/CC/C(CO)=C/[C@H]2OC(=O)C(=C)[C@H]12,> 10 µM
